Experimental data published in the NIST ThermoML archive (doi:10.1021/je200862b).

What was measured:
[1] = 101 kPa, Liquid; for viscosity: Capillary tube (Ostwald / Ubbelohde) method
[2] = xn = mol fraction of the nth substance listed; settings: 101 kPa, Liquid; for viscosity: Capillary tube (Ostwald / Ubbelohde) method

CCN(CC)c1ccccc1 [N,N-diethylaniline]
[1]
Settings | viscosity [mPa·s]
303.15 K | 1.703
313.15 K | 1.402
323.15 K | 1.049

[1], Vibrating tube method
Settings | mass density [kg/m3]
303.15 K | 925.98
313.15 K | 917.72
323.15 K | 912.8

CCN(CC)c1ccccc1 [N,N-diethylaniline] + CCC(=O)O
viscosity [mPa·s], [2]
Settings | x2 = 0 | x2 = 0.1047 | x2 = 0.2096 | x2 = 0.3142 | x2 = 0.4164 | x2 = 0.5177 | x2 = 0.6097 | x2 = 0.7077 | x2 = 0.8123 | x2 = 0.9156
303.15 K | 1.703 | 1.801 | 2.04 | 2.404 | 2.91 | 3.663 | 4.04 | 3.968 | 3.26 | 1.532
313.15 K | 1.402 | 1.45 | 1.59 | 1.765 | 2.118 | 2.527 | 2.88 | 2.737 | 2.086 | 1.247
323.15 K | 1.049 | 1.068 | 1.173 | 1.315 | 1.555 | 1.865 | 2.1 | 1.949 | 1.51 | 0.9723

mass density [kg/m3], [2], Vibrating tube method
Settings | x2 = 0 | x2 = 0.1047 | x2 = 0.2096 | x2 = 0.3142 | x2 = 0.4164 | x2 = 0.5177 | x2 = 0.6097 | x2 = 0.7077 | x2 = 0.8123 | x2 = 0.9156
303.15 K | 925.98 | 933.41 | 942.07 | 952.1 | 963.82 | 977.88 | 989.1 | 996.15 | 995 | 990.93
313.15 K | 917.72 | 924.61 | 932.8 | 942.21 | 953.72 | 967.27 | 977.5 | 983.95 | 982.7 | 980.07
323.15 K | 912.8 | 919.51 | 926.38 | 934.92 | 944.35 | 955.31 | 965.34 | 971.29 | 974.71 | 974.19

CN(C)c1ccccc1 [N,N-dimethylaniline]
[1]
Settings | viscosity [mPa·s]
303.15 K | 1.174
313.15 K | 0.9823
323.15 K | 0.8259

[1], Pycnometric method
Settings | mass density [kg/m3]
303.15 K | 948.02
313.15 K | 938.5
323.15 K | 930.72

CN(C)c1ccccc1 [N,N-dimethylaniline] + CCC(=O)O
viscosity [mPa·s], [2]
Settings | x2 = 0 | x2 = 0.102 | x2 = 0.2054 | x2 = 0.3071 | x2 = 0.4092 | x2 = 0.5107 | x2 = 0.6178 | x2 = 0.7083 | x2 = 0.8023 | x2 = 0.8987
303.15 K | 1.174 | 1.27 | 1.329 | 1.386 | 1.446 | 1.494 | 1.545 | 1.534 | 1.457 | 1.225
313.15 K | 0.9823 | 1.019 | 1.058 | 1.093 | 1.124 | 1.149 | 1.151 | 1.119 | 1.06 | 0.9646
323.15 K | 0.8259 | 0.8432 | 0.8693 | 0.8949 | 0.9196 | 0.9397 | 0.9442 | 0.9121 | 0.864 | 0.7783

mass density [kg/m3], [2], Pycnometric method
Settings | x2 = 0 | x2 = 0.102 | x2 = 0.2054 | x2 = 0.3071 | x2 = 0.4092 | x2 = 0.5107 | x2 = 0.6178 | x2 = 0.7083 | x2 = 0.8023 | x2 = 0.8987
303.15 K | 948.02 | 954.36 | 959.8 | 964.49 | 969.31 | 974.03 | 978.56 | 982.24 | 985.32 | 986.44
313.15 K | 938.5 | 943.74 | 949.09 | 954.21 | 959.17 | 963.99 | 968.62 | 972.2 | 975.35 | 975.69
323.15 K | 930.72 | 934.82 | 939.72 | 944.52 | – | 953.51 | 958 | 961.05 | 963.47 | 963.54

CCC(=O)O [propanoic acid]
[1]
Settings | viscosity [mPa·s]
303.15 K | 0.9496
313.15 K | 0.8476
323.15 K | 0.7062

[1], Pycnometric method
Settings | mass density [kg/m3]
303.15 K | 982.09
313.15 K | 973.4
323.15 K | 961.39

CCC(=O)O [propanoic acid] + CCN(CC)c1ccccc1
[2], x1 = 1
Settings | viscosity [mPa·s]
303.15 K | 0.9496
313.15 K | 0.8476
323.15 K | 0.7062

[2], Vibrating tube method, x1 = 1
Settings | mass density [kg/m3]
303.15 K | 982.09
313.15 K | 973.4
323.15 K | 961.39

CCC(=O)O [propanoic acid] + CN(C)c1ccccc1
[2], x1 = 1
Settings | viscosity [mPa·s]
303.15 K | 0.9496
313.15 K | 0.8476
323.15 K | 0.7062

[2], Pycnometric method, x1 = 1
Settings | mass density [kg/m3]
303.15 K | 982.09
313.15 K | 973.4
323.15 K | 961.39
